A short description of data set [1]: MTS cytotoxicity assay on BHK-21 cells. The conditions noted are these: hamster. (In general: Tetrazolium dyes change colour on reduction, which living cells bring about.)
Another data set has as its system BHK-21 cells. Put plainly: MTS cytotoxicity assay on BHK-21 cells. The following applies: BHK-21 cells, MTS assay, 2 days; more than 95% of treated cells viable.
For data set [2], the system named is CHIKV. Put plainly: Post-entry virus yield assay, CHIKV RNA copy number by qRT-PCR. The conditions noted are these: for Inhibitory effect against CHIKV replication (RNA copy number): virus yield assay, qRT-PCR, Vero cells. A general note: Quantitative PCR measures a nucleic acid by following its amplification.
Data set [3] relates to CHIKV. Put plainly: Primary screening: CPE inhibition assay (confirmed by MTS) in CHIKV-infected Vero cells. The conditions noted are these: for Antiviral activity in CPE inhibition and MTS assays: MOI = 1, 48 h; for CPE inhibitory activity: highest concentrations (tested as high as 200 μg/ml), MOI = 1, 48 hpi.
For the next data set, the system named is Vero cells. Put plainly: MTS cytotoxicity assay on Vero cells. The following applies: Vero cells, MTS assay, 2 days; more than 95% of treated cells viable.
The nature of data set [4]: MTS cytotoxicity assay on Vero cells. The following applies: African green monkey.
For the next data set, the system named is CHIKV replicon. More on the design: method as in PMID 22205980. The conditions noted are these: previous study, cited from earlier work.

Structures are written as SMILES. In brackets after ≈: the same amount, converted by molar mass. Entries after “also recorded” stand apart in the source; their conditions may differ. Like-named read-outs stand apart in the source and are kept apart here.

The source of these data is paper PMC4468427, “Antiviral activity of silymarin against chikungunya virus” (Scientific Reports, 2015).

As a reminder, the CC50 is the concentration at which the toxic effect on the cells reaches its halfway point. As for `O=c1c(O)c(-c2ccc(O)cc2)oc2cc(O)cc(O)c12` [Kaempferol], the CC50 at 2 days in data set [1] came to 537 µg/mL (≈ 1880 µM). Further, the “MNTD (maximum non-toxic dose)” value is over 200 µg/mL in the data set on BHK-21 cells and over 400 µg/mL with Vero cells. The “Inhibitory effect against CHIKV replication (RNA copy number)” value in the data set with CHIKV [2] is given as “neither kaempferol nor quercetin showed any significant inhibitory effect; also recorded: no significant inhibitory effect”. The “Antiviral activity in CPE inhibition and MTS assays” value in the data set on CHIKV [3] was “neither kaempferol nor quercetin showed significant antiviral activity”. Moreover, the CPE inhibitory activity in the data set on CHIKV [3] was 25%. The 50% cytotoxic concentration (CC50) at 48 h in data set [4] was over 1000 µg/mL.

`O=c1c(O)c(-c2ccc(O)c(O)c2)oc2cc(O)cc(O)c12` [Quercetin] gave a CC50 at 2 days in data set [1] of over 800 µg/mL. Moreover, the “MNTD (maximum non-toxic dose)” value in the data set with BHK-21 cells was over 500 µg/mL; with Vero cells, over 400 µg/mL. Further, the “Inhibitory effect against CHIKV replication (RNA copy number)” value in the data set with CHIKV [2] was “neither kaempferol nor quercetin showed any significant inhibitory effect; also recorded: no significant inhibitory effect”. Further, in the data set with CHIKV [3], the “Antiviral activity in CPE inhibition and MTS assays” value was “neither kaempferol nor quercetin showed significant antiviral activity”. The CPE inhibitory activity in the data set on CHIKV [3] worked out at 25%. Further, in data set [4], the CC50 at 48 h was over 1000 µg/mL.

The term IC50 denotes the point on the concentration scale where inhibition reaches its midpoint. As for `COc1cc(C2Oc3cc([C@H]4Oc5cc(O)cc(O)c5C(=O)[C@@H]4O)ccc3OC2CO)ccc1O` (stereo partly shown) [Silybin], the half-maximal inhibitory concentration (IC50) result with CHIKV replicon (converted from μM) was “approximately 30 μg/ml”; with CHIKV replicon (read-out: IC50) it was 59.8 µM; in the data set on CHIKV [2] (Chikungunya virus, Vero), 69.7 µg/mL (≈ 144 µM). Further, in the data set with Vero cells, the “MNTD (maximum non-toxic dose)” value is over 50 µg/mL. Besides, in data set [4], the 50% cytotoxic concentration (CC50) at 48 h is over 200 µg/mL.
